Assay results taken from US20120142715A1, “POLYMORPH OF [4,6-BIS(DIMETHYLAMINO)-2-(4-BENZYL)PYRIMIDIN-5-YL]” (BOEHRINGER INGELHEIM INTERNATIONAL GMBH, priority 2009, published 2012).
Counter-ions that a name gives are not always drawn.

How the values were obtained:
[1] = Dynamic vapor sorption (water sorption/desorption); type: physicochemical; details: for hygroscopicity (in words): DVS; for moisture gain / water uptake: 85% relative humidity
Method: Water sorption/desorption profiles: Water sorption/desorption profiles of the Type II ethylenediamine salt are shown in FIG. 6. […] A similar water sorption/desorption study was carried out on the Type I ethylenediamine salt (FIG. 7). […] The sorption of water caused a form change in the Type I ethylenediamine salt which was observed using XRPD analysis.
Vapor sorption/desorption was carried out using Surface Measurement Systems DVS-HT. Samples were placed into a foil insert placed on a sample pan. […] The equilibrium point of each step was reached when 0.002% of weight change was reached.

[2] = DSC and TGA thermal events / weight loss at elevated temperature; type: physicochemical
Method: Weight loss at elevated temperature: Differences in thermal characteristics between the Type I and Type II ethylenediamine salts were also observed using differential scanning calorimetry (DSC), thermal gravimetric analysis (TGA) and dynamic vapor sorption (DVS) studies.
DSC and TGA thermograms of the Type II ethylenediamine salt (FIG. 4) indicate minimal loss of residual solvent up to 100° C. (about 0.16% which is controllable by more thorough drying). […] A first endothermic peak appears at about 192° C. with about 5.6% of total weight loss in TGA at corresponding temperature region (140° C. to 210° C.). This weight loss corresponds roughly to the theoretical weight loss (5.99 wt %) of ethylenediamine from the ethylenediamine salt of the compound of formula (I) (which contains 0.50 molar equivalents of ethylenediamine). […] The following endothermic peak is shown at 232° C. which is similar to the melting point of the free-acid form of the compound of formula (I).
There is about 3.8% weight loss at 20° C. to 70° C., which corresponds to the loss of water. A major endotherm at 118° C. to 134° C. corresponds to the melting of the ethylenediamine salt with volatilization, corresponding to the loss of ethanol and some ethylenediamine (about 4.4%). Further loss of ethylenediamine occurs at about 147° C. to 160° C. Above 165° C., melting and decomposition of the free-acid of the compound of formula (I) take place.
DSC was carried out using TA Instruments Q1000 Differential Scanning Calorimeter. Samples were placed in sealed aluminum pans for analysis with an empty aluminum pan as the reference. A heating rate of 10° C./min was employed over a temperature range from 20° C. to 300° C.
TGA was carried out using TA Instruments Q500 Thermogravimetric analyzer. Samples were placed into an platinum sample pan. A heating rate of 10° C./min was employed over a temperature range from 25° C. to 300° C.

[3] = XRPD analysis of crystallinity after heat-treatment; type: physicochemical; details: for change in crystallinity (XRPD) as a result of heat treatment: heated at 80° C. under reduced pressure for 15 hours, vs sample kept at about 25° and atmospheric pressure
Method: Effect of heat-treatment on crystallinity: Applicants carried out an XRPD analysis of samples of the Type I and Type II ethylenediamine salts exposed to elevated temperature (80° C.), and the results are shown in FIG. 3. In FIG. 3, the top pattern A-1 was obtained on a sample of the Type II ethylenediamine salt maintained at atmospheric pressure and at about 25° prior to measuring the XRPD reflections. The pattern A-2 was obtained from a sample of the Type II ethylenediamine salt which was heated at 80° C. under reduced pressure for 15 hours prior to measuring the XRPD reflections.
The bottom pattern B-1 was obtained on a sample of the Type I ethylenediamine salt which was maintained at atmospheric pressure and at about 25° prior to measuring the XRPD reflections. The pattern B-2 was obtained from a sample of the Type I ethylenediamine salt which was heated at 80° C. under reduced pressure for 15 hours prior to measuring the XRPD reflections.
XRPD data were recorded with a Rigaku Miniflex II powder diffractometer (The Woodlands, Tex.). The radiation was CuKa (30 kV, 15 mA). Data were collected at 25° C. from 3 to 35 degrees 2θ at 0.02 degrees per step and 1.67 sec per step. Samples were prepared on Silicon (510) specimen holders as a thin layer of powdered material without solvent.

[4] = cited from earlier work

Row | SMILES | hygroscopicity (in words) ([1]; 25° C.) | water uptake ([1]; 70% relative humidity, 25° C.) [%] | moisture gain / water uptake ([1]; 25° C.) | effect of water sorption on solid form (XRPD) ([1]; after sorption of water) | thermal behavior in DSC and TGA thermograms [2] | weight loss (loss of water) ([2]; 20° C. to 70° C.) | Onset of event: Loss of water ([2]; DSC/TGA, 10° C./min) [°C] | Onset of event: Melting and loss of ethanol and ethylenediamine ([2]; DSC/TGA, 10° C./min) [°C] | Onset of event: Melting of the free-acid of compound of formula (I) ([2]; DSC/TGA, 10° C./min) [°C] | weight loss (loss of ethanol and some ethylenediamine) ([2]; major endotherm at 118° C. to 134° C.) | change in crystallinity (XRPD) as a result of heat treatment [3] | weight loss in thermogravimetric analysis (attributed to loss of ethanol) ([4]; from 125° C. to 150° C.) | weight loss in thermogravimetric analysis ([4]; from about 30° C. to about 75° C.) | proneness to hydration compared with the other polymorph [1] | total weight loss in TGA (loss of ethylenediamine) ([2]; 140° C. to 210° C., first endothermic peak at about 192° C.) | Onset of event: Melting and loss of ethylenediame ([2]; DSC/TGA, 10° C./min) [°C] | loss of residual solvent (TGA) ([2]; up to 100° C.) | thermal stability compared with the other polymorph (XRPD study) ([3]; 80° C. heat treatment)
1 | CN(C)c1nc(Cc2ccc(NC(=O)c3ccc(C(F)(F)F)cc3)cc2)nc(N(C)C)c1CC(=O)O [Type I ethylenediamine salt, ethylenediamine salt of [4,6-bis(dimethylamino)-2-(4-{[4-(trifluoromethyl)benzoyl]amino}benzyl)pyrimidin-5-yl]acetic acid] | significant moisture sorption | ~6 | ~7% | form change | unstable thermal behavior | about 3.8% | 30 | 120 | 210 | about 4.4% | significant change in the crystallinity | larger weight loss | slight weight loss | – | – | – | – | –
2 | CN(C)c1nc(Cc2ccc(NC(=O)c3ccc(C(F)(F)F)cc3)cc2)nc(N(C)C)c1CC(=O)O [Type II ethylenediamine salt, ethylenediamine salt of [4,6-bis(dimethylamino)-2-(4-{[4-(trifluoromethyl)benzoyl]amino}benzyl)pyrimidin-5-yl]acetic acid] | non-hygroscopic | – | about 0.08% | – | – | – | – | – | 225 | – | no noticeable change in the crystallinity | – | – | less prone to hydration | about 5.6% | 160 | about 0.16% | more thermally stable
